Assay: wn = mass fraction of the nth substance listed
Settings: Liquid, Pycnometric method, w2 = 0.4981

FC(F)C(F)(F)F [pentafluoroethane] + FCF
Settings | mass density [kg/m3]
357.15 K, 9042 kPa | 773.5
357.15 K, 9048 kPa | 773.4
357.15 K, 16243 kPa | 919
357.15 K, 16254 kPa | 918.9
357.15 K, 16277 kPa | 919.1
358.15 K, 9284 kPa | 773.4
358.15 K, 9290 kPa | 773.3
358.15 K, 16617 kPa | 918.9
358.15 K, 16628 kPa | 918.8
358.15 K, 16652 kPa | 919.1
359.15 K, 9527 kPa | 773.3
359.15 K, 9532 kPa | 773.3
359.15 K, 16990 kPa | 918.8
359.15 K, 17003 kPa | 918.7
359.15 K, 17027 kPa | 919
360.15 K, 9770 kPa | 773.3
360.15 K, 9775 kPa | 773.2
360.15 K, 17365 kPa | 918.7
360.15 K, 17377 kPa | 918.7
360.15 K, 17401 kPa | 918.9
361.15 K, 10013 kPa | 773.2
361.15 K, 10019 kPa | 773.1
361.15 K, 17739 kPa | 918.6
361.15 K, 17752 kPa | 918.6
361.15 K, 17776 kPa | 918.8
362.15 K, 10256 kPa | 773.2
362.15 K, 10262 kPa | 773.1
362.15 K, 18113 kPa | 918.5
362.15 K, 18127 kPa | 918.5
362.15 K, 18151 kPa | 918.7
363.15 K, 10501 kPa | 773.1
363.15 K, 10506 kPa | 773
363.15 K, 18487 kPa | 918.4
363.15 K, 18501 kPa | 918.4
363.15 K, 18526 kPa | 918.6
364.15 K, 10745 kPa | 773.1
364.15 K, 10751 kPa | 773
364.15 K, 18862 kPa | 918.4
364.15 K, 18876 kPa | 918.3
364.15 K, 18899 kPa | 918.5
365.15 K, 10990 kPa | 773
365.15 K, 10996 kPa | 772.9
365.15 K, 19236 kPa | 918.3
365.15 K, 19250 kPa | 918.3
365.15 K, 19274 kPa | 918.4
366.15 K, 11235 kPa | 772.9
366.15 K, 11241 kPa | 772.9
366.15 K, 19610 kPa | 918.2
366.15 K, 19625 kPa | 918.2
366.15 K, 19649 kPa | 918.4
367.15 K, 11480 kPa | 772.9
367.15 K, 11486 kPa | 772.8
367.15 K, 19985 kPa | 918.1
367.15 K, 20000 kPa | 918.1
367.15 K, 20025 kPa | 918.3
368.15 K, 11726 kPa | 772.8
368.15 K, 11732 kPa | 772.7
368.15 K, 20360 kPa | 918
368.15 K, 20375 kPa | 918
368.15 K, 20400 kPa | 918.2
369.15 K, 11972 kPa | 772.8
369.15 K, 11979 kPa | 772.7
369.15 K, 20734 kPa | 917.9
369.15 K, 20750 kPa | 917.9
369.15 K, 20776 kPa | 918.1
370.15 K, 12219 kPa | 772.7
370.15 K, 12225 kPa | 772.6
370.15 K, 21109 kPa | 917.8
370.15 K, 21125 kPa | 917.8
370.15 K, 21150 kPa | 918
371.15 K, 12465 kPa | 772.6
371.15 K, 12472 kPa | 772.6
371.15 K, 21484 kPa | 917.7
371.15 K, 21500 kPa | 917.7
371.15 K, 21525 kPa | 917.9
372.15 K, 12712 kPa | 772.6
372.15 K, 12719 kPa | 772.5
372.15 K, 21859 kPa | 917.6
372.15 K, 21875 kPa | 917.6
372.15 K, 21901 kPa | 917.8
373.15 K, 12959 kPa | 772.5
373.15 K, 12966 kPa | 772.5
373.15 K, 22234 kPa | 917.5
373.15 K, 22250 kPa | 917.6
373.15 K, 22277 kPa | 917.8
374.15 K, 13207 kPa | 772.5
374.15 K, 13213 kPa | 772.4
374.15 K, 22609 kPa | 917.5
374.15 K, 22625 kPa | 917.5
374.15 K, 22654 kPa | 917.7
375.15 K, 13454 kPa | 772.4
375.15 K, 13461 kPa | 772.3
375.15 K, 22984 kPa | 917.4
375.15 K, 23000 kPa | 917.4
375.15 K, 23029 kPa | 917.6
376.15 K, 13702 kPa | 772.3
376.15 K, 13709 kPa | 772.3
376.15 K, 23359 kPa | 917.3
376.15 K, 23375 kPa | 917.3
376.15 K, 23406 kPa | 917.5
377.15 K, 13950 kPa | 772.3
377.15 K, 13957 kPa | 772.2
377.15 K, 23734 kPa | 917.2
377.15 K, 23750 kPa | 917.2
377.15 K, 23780 kPa | 917.4
378.15 K, 14198 kPa | 772.2
378.15 K, 14205 kPa | 772.2
378.15 K, 24109 kPa | 917.1
378.15 K, 24125 kPa | 917.1
378.15 K, 24155 kPa | 917.3
379.15 K, 14447 kPa | 772.2
379.15 K, 14454 kPa | 772.1
379.15 K, 24484 kPa | 917
379.15 K, 24500 kPa | 917
379.15 K, 24531 kPa | 917.2
380.15 K, 14696 kPa | 772.1
380.15 K, 14702 kPa | 772
380.15 K, 24858 kPa | 916.9
380.15 K, 24875 kPa | 916.9
380.15 K, 24906 kPa | 917.1
381.15 K, 14944 kPa | 772.1
381.15 K, 14951 kPa | 772
381.15 K, 25233 kPa | 916.8
381.15 K, 25250 kPa | 916.8
381.15 K, 25282 kPa | 917
382.15 K, 15194 kPa | 772
382.15 K, 15200 kPa | 771.9
382.15 K, 25608 kPa | 916.7
382.15 K, 25625 kPa | 916.7
382.15 K, 25657 kPa | 916.9
383.15 K, 15443 kPa | 772
383.15 K, 15449 kPa | 771.8
383.15 K, 25983 kPa | 916.6
383.15 K, 26000 kPa | 916.6
383.15 K, 26033 kPa | 916.8
384.15 K, 15692 kPa | 771.9
384.15 K, 15699 kPa | 771.8
384.15 K, 26358 kPa | 916.5
384.15 K, 26375 kPa | 916.5
384.15 K, 26408 kPa | 916.7
385.15 K, 15942 kPa | 771.8
385.15 K, 15948 kPa | 771.7
385.15 K, 26733 kPa | 916.4
385.15 K, 26750 kPa | 916.5
385.15 K, 26784 kPa | 916.6
386.15 K, 16192 kPa | 771.8
386.15 K, 16198 kPa | 771.7
386.15 K, 27107 kPa | 916.3
386.15 K, 27125 kPa | 916.4
386.15 K, 27159 kPa | 916.6
387.15 K, 16442 kPa | 771.7
387.15 K, 16448 kPa | 771.6
387.15 K, 27482 kPa | 916.2
387.15 K, 27500 kPa | 916.3
387.15 K, 27533 kPa | 916.5
388.15 K, 16692 kPa | 771.6
388.15 K, 16698 kPa | 771.5
388.15 K, 27856 kPa | 916.1
388.15 K, 27874 kPa | 916.2
388.15 K, 27907 kPa | 916.4
389.15 K, 16942 kPa | 771.6
389.15 K, 16948 kPa | 771.5
389.15 K, 28231 kPa | 916
389.15 K, 28249 kPa | 916.1
389.15 K, 28282 kPa | 916.3
390.15 K, 17192 kPa | 771.5
390.15 K, 17198 kPa | 771.4
390.15 K, 28605 kPa | 915.9
390.15 K, 28624 kPa | 916
390.15 K, 28657 kPa | 916.2
391.15 K, 17442 kPa | 771.4
391.15 K, 17448 kPa | 771.3
391.15 K, 28979 kPa | 915.8
391.15 K, 28998 kPa | 915.9
391.15 K, 29032 kPa | 916.1
392.15 K, 17692 kPa | 771.4
392.15 K, 17698 kPa | 771.3
392.15 K, 29354 kPa | 915.7
392.15 K, 29373 kPa | 915.8
392.15 K, 29407 kPa | 916
393.15 K, 17943 kPa | 771.3
393.15 K, 17949 kPa | 771.2
393.15 K, 29728 kPa | 915.6
393.15 K, 29782 kPa | 915.9
394.15 K, 18193 kPa | 771.3
394.15 K, 18199 kPa | 771.1
395.15 K, 18444 kPa | 771.2
395.15 K, 18450 kPa | 771.1
396.15 K, 18701 kPa | 771
397.15 K, 18951 kPa | 770.9
